Laboratory results: patent publication US20240294572A1, “Antimicrobial Peptides” (priority 2021, published 2024)
Converted amounts (≈) assume the structure as drawn. No end group written: not given here.

Experiments:
E. coli ATCC 25922 [1] = format: cell-based
How it was run: (§1)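 Broth microdilution after CLSI M07-A10, modified: 2-fold peptide dilutions plus log-phase bacteria diluted to 0.001 OD, incubated overnight at 37° C, absorbance read at 630 nm. Medium effects probed with varied pH, NaCl or human serum in TSB (control pH 7.4), with 10%, 50%, 100% TSB, and with MHB.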

S. aureus USA300 LAC = format: cell-based; conditions: USA300
How it was run: as §1

E. coli ATCC 25922 [2] = conditions: LL-37 value taken from Narayana, et al.; cited from earlier work
[3] = system: Klebsiella pneumonia ATCC 13883; conditions: LL-37 value taken from Narayana, et al.; cited from earlier work
P. aeruginosa PAO1 = conditions: LL-37 value taken from Narayana, et al.; cited from earlier work
[4] = system: human red blood cells (hRBCs); conditions: 50% hemolysis; LL-37 value taken from Narayana, et al.; cited from earlier work
[5] = biological target: T1, Apolipoprotein A-I (Q00623) (Mus musculus, UniProt Q00623); assay: Mass spectrometry of mouse plasma proteins bound to bead-immobilized peptide; format: binding; conditions: peptide on beads, 5% mouse plasma, 18 hours
T1 construct: incubated with 5% mouse plasma; from tissue; host or cells: mouse plasma (5%)
T1 sequence (Q00623 19-264): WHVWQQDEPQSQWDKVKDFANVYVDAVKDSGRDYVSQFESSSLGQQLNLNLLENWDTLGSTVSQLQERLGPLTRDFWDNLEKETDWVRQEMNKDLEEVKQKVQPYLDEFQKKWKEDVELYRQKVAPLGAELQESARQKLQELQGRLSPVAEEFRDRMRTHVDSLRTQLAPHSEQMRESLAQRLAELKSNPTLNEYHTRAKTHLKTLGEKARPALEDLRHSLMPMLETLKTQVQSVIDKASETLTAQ
Description: (§2) Dynabeads M-370 amine (2×10^9 beads/mL, 50 μL; Thermo Fisher Scientific) were washed 3 times in sterile PBS (1 mL; GIBCO) and reacted with a bifunctional SM(PEG)4 cross-linker (5 mg/mL in DMSO) containing N-hydroxysuccinimide (NHS) ester and maleimide functional groups. A stable covalent bond between the amino group of beads and the NHS ester of the cross-linker was formed in PBS at pH 7.2 at room temperature for 24 hours with shaking at 80 rpm. The beads were then washed six times with PBS to remove nonreacted cross-linker. Next, peptide C10-KR8 (with a cysteine at the N-terminus) at 5 mg/mL was reacted with the free maleimide group in PBS for 24 hours at room temperature with shaking at 80 rpm. Another round of washing was conducted to remove the nonreacted peptides. Both the L-and D-forms of the peptide were coupled in the same manner. A portion of the beads without peptide coupling was saved as a control.
(§3) For serum binding experiments, the beads were resuspended in 500 μL of PBS; 200-μL aliquots of the coated and control dynabead were incubated with 5% mouse plasma for 18 hours at 37° C. After binding, the beads were washed six times with PBS to remove unbound proteins. Finally, the beads were suspended in 50 μL of PBS for mass spectrophotometric analysis to identify peptide-binding partners.
(§4) The samples were reduced by 10 mM dithiothreitol (DTT) and incubated for 30 minutes at 56° C. and back to room temperature. A final concentration of 50 mM iodoacetamide was added to alkylate free cysteines followed by further incubation for 20 min in the dark. Bound proteins were enzymatically digested by trypsin (4 μL of 0.5 μg/mL) overnight. A 60 […] portion was transferred to a new Eppendorf® tube and dried for 2 hours. The samples were then dissolved in 20 μL of 2% acetonitrile with 0.1% formic acid before being loaded to Q-tip columns (Pepclean, C18 spin column). Column was activated by pipetting in and out (4× times), 10 μL of 70% acetonitrile with 0.1% formic acid, and equilibrating with the same volume of 2% acetonitrile with 0.1% formic acid. Binding of the samples was done by mixing more than 10 × times, followed by washing in the same buffer (2% acetonitrile with 0.1% formic acid). The bound peptides were then eluted with 20 μL of 70% acetonitrile with 0.1% formic acid. Samples were subjected to LC-MS analysis after being suspended in the desired buffer.
(§5) Extracted peptides were resuspended in 2% acetonitrile (ACN) and 0.1% formic acid (FA) and loaded onto trap column Acclaim™ PepMap™ 100 75 μm×2 cm C18 LC Columns (Thermo Scientific) at a flow rate of 4 μL/minute. These were then separated with a Thermo RSLC UltiMate™ 3000 on a Thermo Easy-Spray PepMap™ M RSLC C18 75 μm×50 cm C-18 2 μm column (Thermo Scientific) with a step gradient of 4-25% solvent B (0.1% FA in 80% ACN) from 10 to 37 minutes and 25-45% solvent B for 37-46 minutes at 300 nL/min and 50° C. with a 70 minute total run time. Eluted peptides were analyzed by a Thermo Orbitrap Fusion™ Lumos™ Tribrid™ (Thermo Scientific) mass spectrometer in a data dependent acquisition mode. A survey full scan MS (from m/z 350-1800) was acquired in the orbitrap with a resolution of 120000. The AGC target for MS1 was set as 4×10^5 and the ion filling time set as 100 ms. The most intense ions with charge state 2-6 were isolated in 3 second cycle and fragmented using HCD fragmentation with 40% normalized collision energy and detected at a mass resolution of 30000 at 200 m/z. The AGC target for MS/MS was set as 5×10^4 and ion filling time set 60 ms dynamic exclusion was set for 30 seconds with a 10 ppm mass window. Protein identification was performed by searching MS/MS data against the Swiss-Prot mouse protein database. The search was set up for full tryptic peptides with a maximum of two missed cleavage sites. Acetylation of protein N-terminus and oxidized methionine were included as variable modifications, and carbamidomethylation of cysteine was set as fixed modification. […]

[6] = biological target: T2, Apolipoprotein A-II (P09813) (Mus musculus, UniProt P09813); assay: as above; format: binding; conditions: peptide on beads, 5% mouse plasma, 18 hours
T2 construct: incubated with 5% mouse plasma; from tissue; host or cells: mouse plasma (5%)
Description: as §2, §3, §4, §5

[7] = biological target: T3, Apolipoprotein A-IV (P06728) (Mus musculus, UniProt P06728); assay: as above; format: binding; conditions: peptide on beads, 5% mouse plasma, 18 hours
T3 construct: incubated with 5% mouse plasma; from tissue; host or cells: mouse plasma (5%)
T3 sequence (P06728 21-395): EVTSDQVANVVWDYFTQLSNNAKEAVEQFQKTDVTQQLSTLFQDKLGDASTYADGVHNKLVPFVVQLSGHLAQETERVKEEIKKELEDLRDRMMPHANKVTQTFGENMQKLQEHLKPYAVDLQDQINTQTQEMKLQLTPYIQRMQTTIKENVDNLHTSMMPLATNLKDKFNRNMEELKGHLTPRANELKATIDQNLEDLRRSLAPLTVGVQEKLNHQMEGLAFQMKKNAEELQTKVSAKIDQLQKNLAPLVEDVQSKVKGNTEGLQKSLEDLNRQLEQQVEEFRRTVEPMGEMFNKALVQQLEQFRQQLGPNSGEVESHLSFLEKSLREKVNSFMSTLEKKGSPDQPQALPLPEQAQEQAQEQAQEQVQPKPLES
Description: as §2, §3, §4, §5

[8] = biological target: T4, Apolipoprotein C-I (P34928) (Mus musculus, UniProt P34928); assay: as above; format: binding; conditions: peptide on beads, 5% mouse plasma, 18 hours
T4 construct: incubated with 5% mouse plasma; from tissue; host or cells: mouse plasma (5%)
T4 sequence (P34928 27-88): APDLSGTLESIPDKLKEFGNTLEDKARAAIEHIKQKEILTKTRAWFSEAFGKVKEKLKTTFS
Description: as §2, §3, §4, §5

[9] = biological target: T5, Apolipoprotein C-III (P33622) (Mus musculus, UniProt P33622); assay: as above; format: binding; conditions: peptide on beads, 5% mouse plasma, 18 hours
T5 construct: incubated with 5% mouse plasma; from tissue; host or cells: mouse plasma (5%)
T5 sequence (P33622 21-99): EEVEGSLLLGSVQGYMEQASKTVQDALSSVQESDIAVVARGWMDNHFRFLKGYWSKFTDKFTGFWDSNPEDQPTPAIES
Description: as §2, §3, §4, §5

[10] = biological target: T6, Apolipoprotein E (P08226) (Mus musculus, UniProt P08226); assay: as above; format: binding; conditions: peptide on beads, 5% mouse plasma, 18 hours
T6 construct: incubated with 5% mouse plasma; from tissue; host or cells: mouse plasma (5%)
T6 sequence (P08226 19-311): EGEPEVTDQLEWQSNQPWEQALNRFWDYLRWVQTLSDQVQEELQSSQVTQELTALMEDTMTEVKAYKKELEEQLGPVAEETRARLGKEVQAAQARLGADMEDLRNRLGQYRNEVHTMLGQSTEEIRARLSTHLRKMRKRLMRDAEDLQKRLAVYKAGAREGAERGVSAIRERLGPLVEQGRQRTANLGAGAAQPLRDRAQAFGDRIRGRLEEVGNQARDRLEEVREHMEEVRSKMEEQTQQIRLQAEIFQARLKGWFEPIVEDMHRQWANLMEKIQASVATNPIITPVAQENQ
Description: as §2, §3, §4, §5

Serum albumin (P07724) = biological target: T7, Serum albumin (P07724) (Mus musculus, UniProt P07724); assay: as above; format: binding; conditions: peptide on beads, 5% mouse plasma, 18 hours
T7 construct: incubated with 5% mouse plasma; from tissue; host or cells: mouse plasma (5%)
Description: as §2, §3, §4, §5

T7 sequence (P07724 25-608): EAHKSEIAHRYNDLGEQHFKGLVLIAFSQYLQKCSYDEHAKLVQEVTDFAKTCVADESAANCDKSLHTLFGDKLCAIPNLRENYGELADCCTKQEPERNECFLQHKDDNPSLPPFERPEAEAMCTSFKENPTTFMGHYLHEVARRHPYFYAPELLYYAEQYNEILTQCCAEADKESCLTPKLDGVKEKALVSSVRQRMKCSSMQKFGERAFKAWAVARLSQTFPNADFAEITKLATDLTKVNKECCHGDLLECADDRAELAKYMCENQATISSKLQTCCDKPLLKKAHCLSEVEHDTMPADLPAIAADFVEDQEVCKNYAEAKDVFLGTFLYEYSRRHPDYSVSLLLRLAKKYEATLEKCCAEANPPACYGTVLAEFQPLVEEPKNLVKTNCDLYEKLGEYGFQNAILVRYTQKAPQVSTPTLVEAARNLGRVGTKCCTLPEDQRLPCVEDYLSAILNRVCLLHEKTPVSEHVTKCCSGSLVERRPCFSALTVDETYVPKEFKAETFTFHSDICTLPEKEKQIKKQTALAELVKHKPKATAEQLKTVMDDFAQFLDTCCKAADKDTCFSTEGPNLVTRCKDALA
T2 sequence (P09813 19-102): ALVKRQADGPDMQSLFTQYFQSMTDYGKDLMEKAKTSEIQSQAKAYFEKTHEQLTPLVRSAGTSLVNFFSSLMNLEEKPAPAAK

| Compound | Minimal inhibitory concentration against E. coli, 10% TSB (E. coli ATCC 25922 [1]) | Minimal inhibitory concentration against E. coli, 50% TSB (E. coli ATCC 25922 [1]) | Minimal inhibitory concentration against E. coli, 100% MHB (E. coli ATCC 25922 [1]) | Minimal inhibitory concentration against E. coli, 100% TSB (E. coli ATCC 25922 [1]) | Minimal inhibitory concentration against S. aureus, 10% TSB (S. aureus USA300 LAC) | Minimal inhibitory concentration against S. aureus, 50% TSB (S. aureus USA300 LAC) | Minimal inhibitory concentration against S. aureus, 100% MHB (S. aureus USA300 LAC) | Minimal inhibitory concentration against S. aureus, 100% TSB (S. aureus USA300 LAC) | MIC (μM) EC (E. coli ATCC 25922 [2]) | MIC (μM) KP [3] | MIC (μM) PA (P. aeruginosa PAO1) | HC50 [4] | Intensity of bound Apolipoprotein A-I [5] | Intensity of bound Apolipoprotein A-II [6] | Intensity of bound Apolipoprotein A-IV [7] | Intensity of bound Apolipoprotein C-I [8] | Intensity of bound Apolipoprotein C-III [9] | Intensity of bound Apolipoprotein E [10] | Intensity of bound Serum albumin (Serum albumin (P07724)) |
| --- | --- | --- | --- | --- | --- | --- | --- | --- | --- | --- | --- | --- | --- | --- | --- | --- | --- | --- | --- |
| CC[C@H](C)[C@H](NC(=O)[C@H](CCCCN)NC(=O)[C@H](CCC(=O)O)NC(=O)[C@H](CCCCN)NC(=O)[C@H](CO)NC(=O)[C@H](CCCCN)NC(=O)[C@H](CCCNC(=N)N)NC(=O)[C@H](Cc1ccccc1)NC(=O)[C@H](Cc1ccccc1)NC(=O)[C@H](CC(=O)O)NC(=O)CNC(=O)[C@H](CC(C)C)NC(=O)[C@@H](N)CC(C)C)C(=O)NCC(=O)N[C@@H](CCCCN)C(=O)N[C@@H](CCC(=O)O)C(=O)N[C@@H](Cc1ccccc1)C(=O)N[C@@H](CCCCN)C(=O)N[C@@H](CCCNC(=N)N)C(=O)N[C@H](C(=O)N[C@H](C(=O)N[C@@H](CCC(N)=O)C(=O)N[C@@H](CCCNC(=N)N)C(=O)N[C@H](C(=O)N[C@@H](CCCCN)C(=O)N[C@@H](CC(=O)O)C(=O)N[C@@H](Cc1ccccc1)C(=O)N[C@@H](CC(C)C)C(=O)N[C@@H](CCCNC(=N)N)C(=O)N[C@@H](CC(N)=O)C(=O)N[C@@H](CC(C)C)C(=O)N[C@H](C(=O)N1CCC[C@H]1C(=O)N[C@@H](CCCNC(=N)N)C(=O)N[C@H](C(=O)N[C@@H](CCC(=O)O)C(=O)N[C@@H](CO)C(N)=O)[C@@H](C)O)C(C)C)[C@@H](C)CC)C(C)C)[C@@H](C)CC [LL-37, reference compound] | 1.6 µM (≈ 7.19 µg/mL) | 6.2 µM (≈ 27.9 µg/mL) | 6.2 µM (≈ 27.9 µg/mL) | 6.25 to 12.5 µM | 50 µM (≈ 225 µg/mL) | > 50 µM | >50 µM | > 50 µM | 3.1 to 6.2 µM | 6.2 µM (≈ 27.9 µg/mL) | >50 µM | 170 µM | – | – | – | – | – | – | – |
| C10-KR8 + linker: C10-KR8 with a cysteine, covalently attached via SM(PEG)4 cross-linker to Dynabeads M-370 amine (CKRIWQRIK; not fully specified (residue 1, N-terminus, C-terminus); also: added N-terminal Cys coupled via SM(PEG)4 to Dynabeads M-370 amine) | – | – | – | – | – | – | – | – | – | – | – | – | 4.29E+09 | 3.65E+05 | 3.21E+08 | 4.35E+08 | 2.02E+08 | 1.68E+07 | 3.72E+10 |
